According to PubChem BioAssay AID2060506 (Molecular Pharmacology Branch, DTP, NCI, 2025):
pIC50: −log10 of the molar value.

Tested on: 598228-144-R-J1-PDC complex spheroid viability
Assay: Anticancer human tumor 598228-144-R-J1-PDC patient-derived serous endometrial adenocarcinoma cell line growth inhibition [GQUAD]
Conditions: for pIC50: curve of first compound; for viability, T/C: stronger effect = lower value; active means viability on the fitted dose curve at most 10% of control; inactive means the rest
Outline: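 Viability of tumor cells grown as complex spheroids with endothelial and stromal cells, exposed to drug combinations. Top concentration at or near clinical Cmax (else 10 microM), diluted in half-log increments.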

[1] = second compound 0.0316 µM, first compound 0.0316 µM
[2] = second compound 0.0316 µM, first compound 0.1 µM
[3] = second compound 0.0316 µM, first compound 0.316 µM
[4] = second compound 0.0316 µM, first compound 1 µM
[5] = second compound 0.0316 µM, first compound 3.16 µM
[6] = second compound 0.0316 µM, first compound 10 µM
[7] = second compound 0.1 µM, first compound 0.0316 µM
[8] = second compound 0.1 µM, first compound 0.1 µM
[9] = second compound 0.1 µM, first compound 0.316 µM
[10] = second compound 0.1 µM, first compound 1 µM
[11] = second compound 0.1 µM, first compound 3.16 µM
[12] = second compound 0.1 µM, first compound 10 µM
[13] = second compound 0.316 µM, first compound 0.0316 µM
[14] = second compound 0.316 µM, first compound 0.1 µM
[15] = second compound 0.316 µM, first compound 0.316 µM
[16] = second compound 0.316 µM, first compound 1 µM
[17] = second compound 0.316 µM, first compound 3.16 µM
[18] = second compound 0.316 µM, first compound 10 µM
[19] = second compound 1 µM, first compound 0.0316 µM
[20] = second compound 1 µM, first compound 0.1 µM
[21] = second compound 1 µM, first compound 0.316 µM
[22] = second compound 1 µM, first compound 1 µM
[23] = second compound 1 µM, first compound 3.16 µM
[24] = second compound 1 µM, first compound 10 µM
[25] = second compound 3.16 µM, first compound 0.0316 µM
[26] = second compound 3.16 µM, first compound 0.1 µM
[27] = second compound 3.16 µM, first compound 0.316 µM
[28] = second compound 3.16 µM, first compound 1 µM
[29] = second compound 3.16 µM, first compound 3.16 µM
[30] = second compound 3.16 µM, first compound 10 µM
[31] = second compound 10 µM, first compound 0.0316 µM
[32] = second compound 10 µM, first compound 0.1 µM
[33] = second compound 10 µM, first compound 0.316 µM
[34] = second compound 10 µM, first compound 1 µM
[35] = second compound 10 µM, first compound 3.16 µM
[36] = second compound 10 µM, first compound 10 µM
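Further: spheroids exposed to the agents for one week before reading.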
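Wherever viability, T/C is given: percent of vehicle DMSO control viability so 100% = untreated growth.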

COc1ccc([C@@H](O)c2cc(-c3ncnc4cc(N5CCOCC5)ccc34)c(F)cc2Cl)nn1 + Cc1cnc(CNC(=O)c2c(=O)c3ccc(N4CCCN(C)CC4)nc3n3c2sc2ccccc23)cn1
active: viability, T/C [30] 0.39% | viability, T/C [34] 0.71% | viability, T/C [35] 0.33% | viability, T/C [36] 0.26%
inactive: viability, T/C [1] 105% | viability, T/C [2] 80.9% | viability, T/C [3] 66.6% | viability, T/C [4] 66.5% | viability, T/C [5] 52.3% | viability, T/C [6] 33.9% | viability, T/C [7] 67% | viability, T/C [8] 70.4% | viability, T/C [9] 64.3% | viability, T/C [10] 51.7% | viability, T/C [11] 43.5% | viability, T/C [12] 33% | viability, T/C [13] 63.2% | viability, T/C [14] 63.5% | viability, T/C [15] 62.7% | viability, T/C [16] 49.1% | viability, T/C [17] 35.3% | viability, T/C [18] 25.5% | viability, T/C [19] 65.9% | viability, T/C [20] 61.6% | viability, T/C [21] 51.6% | viability, T/C [22] 46.1% | viability, T/C [23] 42% | viability, T/C [24] 14.2% | viability, T/C [25] 50% | viability, T/C [26] 36.8% | viability, T/C [27] 41.9% | viability, T/C [28] 31.6% | viability, T/C [29] 20.9% | viability, T/C [31] 35.2% | viability, T/C [32] 40.2% | viability, T/C [33] 19.1%
6.10: pIC50 (second compound 1 µM)
5.84: pIC50 (second compound 0.1 µM)
5.98: pIC50 (second compound 0.316 µM)
> 7.50: pIC50 (second compound 3.16 µM) | pIC50 (second compound 10 µM)
5.57: pIC50 (second compound 0.0316 µM)

CCc1c2c(nc3ccc(O)cc13)-c1cc3c(c(=O)n1C2)COC(=O)[C@]3(O)CC + Cc1cnc(CNC(=O)c2c(=O)c3ccc(N4CCCN(C)CC4)nc3n3c2sc2ccccc23)cn1
inactive: viability, T/C (second compound 0.0316 µM, first compound 0.000999 µM) 62.5% | viability, T/C (second compound 0.0316 µM, first compound 0.00316 µM) 68% | viability, T/C (second compound 0.0316 µM, first compound 0.00999 µM) 55.6% | viability, T/C [1] 42.6% | viability, T/C (second compound 0.0316 µM, first compound 0.0999 µM) 27.3% | viability, T/C [3] 15.3% | viability, T/C (second compound 0.1 µM, first compound 0.000999 µM) 58.7% | viability, T/C (second compound 0.1 µM, first compound 0.00316 µM) 56.1% | viability, T/C (second compound 0.1 µM, first compound 0.00999 µM) 60.4% | viability, T/C [7] 34.1% | viability, T/C (second compound 0.1 µM, first compound 0.0999 µM) 22.6% | viability, T/C [9] 15% | viability, T/C (second compound 0.316 µM, first compound 0.000999 µM) 69.3% | viability, T/C (second compound 0.316 µM, first compound 0.00316 µM) 76.8% | viability, T/C (second compound 0.316 µM, first compound 0.00999 µM) 45.4% | viability, T/C [13] 47.3% | viability, T/C (second compound 0.316 µM, first compound 0.0999 µM) 21.5% | viability, T/C (second compound 1 µM, first compound 0.000999 µM) 68.5% | viability, T/C (second compound 1 µM, first compound 0.00316 µM) 63.5% | viability, T/C (second compound 1 µM, first compound 0.00999 µM) 64.2% | viability, T/C [19] 43.3% | viability, T/C (second compound 1 µM, first compound 0.0999 µM) 19.6% | viability, T/C (second compound 3.16 µM, first compound 0.000999 µM) 70.3% | viability, T/C (second compound 3.16 µM, first compound 0.00316 µM) 63% | viability, T/C (second compound 3.16 µM, first compound 0.00999 µM) 55.8% | viability, T/C [25] 27.9% | viability, T/C (second compound 10 µM, first compound 0.000999 µM) 54% | viability, T/C (second compound 10 µM, first compound 0.00316 µM) 39.5% | viability, T/C (second compound 10 µM, first compound 0.00999 µM) 44%
active: viability, T/C [15] 2.76% | viability, T/C [21] 0.43% | viability, T/C (second compound 3.16 µM, first compound 0.0999 µM) 0.43% | viability, T/C [27] 0.31% | viability, T/C [31] 1.02% | viability, T/C (second compound 10 µM, first compound 0.0999 µM) 0.4% | viability, T/C [33] 0.35%
7.89: pIC50 (second compound 3.16 µM)
7.83: pIC50 (second compound 0.1 µM)
7.74: pIC50 (second compound 0.0316 µM)
7.79: pIC50 (second compound 0.316 µM)
7.65: pIC50 (second compound 1 µM)
> 9.00: pIC50 (second compound 10 µM)

Nc1ccn(C2OC(CO)C(O)C2(F)F)c(=O)n1 (stereo not drawn) + Cc1[nH]c2ccc(F)cc2c1-c1nc2c3cccnc3c3ncccc3c2[nH]1
inactive: viability, T/C [1] 64.6% | viability, T/C [2] 54.6% | viability, T/C [3] 52.1% | viability, T/C [4] 47.9% | viability, T/C [5] 43.9% | viability, T/C [6] 41% | viability, T/C [7] 54.8% | viability, T/C [8] 57.5% | viability, T/C [9] 45.3% | viability, T/C [10] 40% | viability, T/C [11] 39.9% | viability, T/C [12] 44.9% | viability, T/C [13] 60.7% | viability, T/C [14] 52.3% | viability, T/C [15] 48.3% | viability, T/C [16] 39.9% | viability, T/C [17] 43.6% | viability, T/C [18] 49.7% | viability, T/C [19] 53.2% | viability, T/C [20] 49.1% | viability, T/C [21] 46.2% | viability, T/C [22] 36.3% | viability, T/C [23] 50.4% | viability, T/C [24] 41.9% | viability, T/C [25] 36.3% | viability, T/C [26] 36.7% | viability, T/C [27] 38.5% | viability, T/C [28] 37.9% | viability, T/C [29] 32.4% | viability, T/C [30] 44.5% | viability, T/C [31] 51.6% | viability, T/C [32] 37.6% | viability, T/C [33] 37.8% | viability, T/C [34] 47.5% | viability, T/C [35] 35.7% | viability, T/C [36] 32%
> 7.50: pIC50 (second compound 3.16 µM) | pIC50 (second compound 10 µM)
6.36: pIC50 (second compound 0.0316 µM)
7.35: pIC50 (second compound 1 µM)
6.87: pIC50 (second compound 0.1 µM) | pIC50 (second compound 0.316 µM)

O=C(NO)c1cnc(N2CCN(S(=O)(=O)c3ccc4ccccc4c3)CC2)nc1 + Cc1cnc(CNC(=O)c2c(=O)c3ccc(N4CCCN(C)CC4)nc3n3c2sc2ccccc23)cn1
> 7.50: pIC50 (second compound 3.16 µM) | pIC50 (second compound 10 µM)
6.99: pIC50 (second compound 0.0316 µM)
7.46: pIC50 (second compound 1 µM)
6.94: pIC50 (second compound 0.1 µM)
active: viability, T/C [4] 0.83% | viability, T/C [5] 0.39% | viability, T/C [6] 0.19% | viability, T/C [10] 1.24% | viability, T/C [11] 0.16% | viability, T/C [12] 0.23% | viability, T/C [16] 0.27% | viability, T/C [17] 0.14% | viability, T/C [18] 0.14% | viability, T/C [21] 0.25% | viability, T/C [22] 0.31% | viability, T/C [23] 0.15% | viability, T/C [24] 0.19% | viability, T/C [26] 0.34% | viability, T/C [27] 0.31% | viability, T/C [28] 0.23% | viability, T/C [29] 0.19% | viability, T/C [30] 0.21% | viability, T/C [31] 0.42% | viability, T/C [32] 0.28% | viability, T/C [33] 0.56% | viability, T/C [34] 0.4% | viability, T/C [35] 0.29% | viability, T/C [36] 0.25%
inactive: viability, T/C [1] 92.8% | viability, T/C [2] 49.6% | viability, T/C [3] 22.8% | viability, T/C [7] 80.1% | viability, T/C [8] 52% | viability, T/C [9] 25.3% | viability, T/C [13] 69.4% | viability, T/C [14] 38.7% | viability, T/C [15] 16.6% | viability, T/C [19] 51.6% | viability, T/C [20] 30.6% | viability, T/C [25] 38.1%
7.18: pIC50 (second compound 0.316 µM)
